In US11572398B2, “GLP-1 derivatives and uses thereof” (Novo Nordisk A/S, priority 2014, dated 2023):
Where two headings read alike, the source gives them in different places.

How the values were obtained:
[1] = biological target: T1, human GLP-1 receptor (Homo sapiens, UniProt P43220); test: In vitro potency: CRE luciferase reporter gene assay in BHK cells expressing the human GLP-1 receptor; type: cell-based; settings: whole cell reporter gene assay, BHK cells, human GLP-1 receptor; average of at least two replicates; read-out: EC50
T1 construct: expressed in transfected cells; host or cells: BHK cells (parent line BHKTS13), clone FCW467-12A; membrane preparation
T1 sequence (P43220 24-463): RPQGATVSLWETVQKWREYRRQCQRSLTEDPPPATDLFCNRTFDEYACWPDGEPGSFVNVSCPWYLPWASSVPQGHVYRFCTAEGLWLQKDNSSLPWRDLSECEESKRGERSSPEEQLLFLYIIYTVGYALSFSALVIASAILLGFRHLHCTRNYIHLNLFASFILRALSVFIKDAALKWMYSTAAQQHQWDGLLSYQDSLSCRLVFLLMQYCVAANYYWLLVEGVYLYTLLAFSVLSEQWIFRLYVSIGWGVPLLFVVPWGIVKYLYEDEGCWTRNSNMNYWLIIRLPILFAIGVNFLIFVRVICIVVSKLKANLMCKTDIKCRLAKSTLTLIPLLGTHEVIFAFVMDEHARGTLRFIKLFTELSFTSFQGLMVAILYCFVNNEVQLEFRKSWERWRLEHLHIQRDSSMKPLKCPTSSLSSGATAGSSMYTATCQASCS
Method in brief: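 Whole-cell assay in stably transfected BHK cells carrying CRE-driven firefly luciferase, 5×10^3 cells/well, in assay buffer with 2% ovalbumin and 0.2% Pluronic F-68. Compound working solutions were 0.2 μM.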

[2] = Pharmacokinetic study in minipigs (i.v.); settings: male, Göttingen, minipig, in vivo, iv, 2 nmol/kg
Description: The purpose of this study is to determine the protraction in vivo of the GLP-1 derivatives after i.v. administration to minipigs, i.e. the prolongation of their time in the body and thereby their time of action. This is done in a pharmacokinetic (PK) study, where the terminal half-life of the derivative in question is determined. By terminal half-life is meant the time it takes to halve a certain plasma concentration in the terminal elimination phase.
Male Göttingen minipigs were obtained from Ellegaard Göttingen Minipigs (Dalmose, Denmark) approximately 7-14 months of age and weighing approximately 16-35 kg were used in the studies. The minipigs were housed either individually (pigs with permanent catheters) or in a group and fed restrictedly once or twice daily with SDS minipig diet (Special Diets Services, Essex, UK).
After at least 2 weeks of acclimatisation two permanent central venous catheters were implanted in vena cava caudalis or cranialis in each animal. The animals were allowed 1 week recovery after the surgery, and were then used for repeated pharmacokinetic studies with a suitable wash-out period between successive GLP-1 derivative dosings.
Blood samples (for example 0.8 ml) were collected in EDTA buffer (8 mM) and then centrifuged at 4° C. and 1942G for 10 minutes.
Plasma was pipetted into Micronic tubes on dry ice, and kept at −20° C. until analysed for plasma concentration of the respective GLP-1 compound using LOCI. Individual plasma concentration-time profiles were analyzed by a non-compartmental pharmacokinetic method in Phoenix v. 6.2 (Pharsight Inc., Mountain View, Calif., USA), or other relevant software for PK analysis, and the resulting terminal half-lives (harmonic mean) determined.

[3] = biological target: T1, human GLP-1 receptor; test: GLP-1 receptor binding: competitive binding assay (125I-GLP-1, SPA) on isolated membranes at low and high HSA
[4] = Low HSA IC50, low HSA (max. 0.001% final assay concentration)
[5] = high HSA (2.0% final assay concentration), read-out: High HSA IC50

Row | Structure (SMILES) | EC50 [1] | half-life [2] | IC50 [3, 4] | IC50 [3, 5]
1 | CC[C@H](C)[C@H](NC(=O)[C@H](Cc1ccccc1)NC(=O)[C@H](CCC(=O)O)NC(=O)[C@H](CCCNC(=N)N)NC(=O)[C@H](C)NC(=O)[C@H](C)NC(=O)[C@H](CCC(N)=O)NC(=O)[C@H](CCC(=O)O)NC(=O)[C@H](CCC(=O)O)NC(=O)[C@H](CC(C)C)NC(=O)[C@H](Cc1ccc(O)cc1)NC(=O)[C@H](CO)NC(=O)[C@H](CO)NC(=O)[C@@H](NC(=O)[C@H](CC(=O)O)NC(=O)[C@H](CO)NC(=O)[C@@H](NC(=O)[C@H](Cc1ccccc1)NC(=O)[C@@H](NC(=O)CNC(=O)[C@H](CCC(=O)O)NC(=O)C(C)(C)NC(=O)[C@@H](N)Cc1c[nH]cn1)[C@@H](C)O)[C@@H](C)O)C(C)C)C(=O)N[C@@H](C)C(=O)N[C@@H](Cc1c[nH]c2ccccc12)C(=O)N[C@@H](CC(C)C)C(=O)N[C@H](C(=O)N[C@@H](CCCNC(=N)N)C(=O)NCC(=O)N[C@@H](CCCNC(=N)N)C(=O)N[C@@H](CCCCNC(=O)COCCOCCNC(=O)COCCOCCNC(=O)CN(CCCNC(=O)COCCOCCNC(=O)COCCOCCNC(=O)COCCOCCNC(=O)COCCOCCNC(=O)CC[C@H](NC(=O)[C@H]1CC[C@H](CNC(=O)CCCCCCCCCCCCCCCCCCC(=O)O)CC1)C(=O)O)CCCNC(=O)COCCOCCNC(=O)COCCOCCNC(=O)COCCOCCNC(=O)COCCOCCNC(=O)CC[C@H](NC(=O)[C@H]1CC[C@H](CNC(=O)CCCCCCCCCCCCCCCCCCC(=O)O)CC1)C(=O)O)C(=O)O)C(C)C [Example 11] | 0.017 nM | 6.67 days | 0.35 nM | 33 nM
2 | CC[C@H](C)[C@H](NC(=O)[C@H](Cc1ccccc1)NC(=O)[C@H](CCC(=O)O)NC(=O)[C@H](CCCNC(=N)N)NC(=O)[C@H](C)NC(=O)[C@H](C)NC(=O)[C@H](CCC(N)=O)NC(=O)[C@H](CCC(=O)O)NC(=O)[C@H](CCC(=O)O)NC(=O)[C@H](CC(C)C)NC(=O)[C@H](Cc1ccc(O)cc1)NC(=O)[C@H](CO)NC(=O)[C@H](CO)NC(=O)[C@@H](NC(=O)[C@H](CC(=O)O)NC(=O)[C@H](CO)NC(=O)[C@@H](NC(=O)[C@H](Cc1ccccc1)NC(=O)[C@@H](NC(=O)CNC(=O)[C@H](CCC(=O)O)NC(=O)C(C)(C)NC(=O)[C@@H](N)Cc1c[nH]cn1)[C@@H](C)O)[C@@H](C)O)C(C)C)C(=O)N[C@@H](C)C(=O)N[C@@H](Cc1c[nH]c2ccccc12)C(=O)N[C@@H](CC(C)C)C(=O)N[C@H](C(=O)N[C@@H](CCCNC(=N)N)C(=O)NCC(=O)N[C@@H](CCCNC(=N)N)C(=O)N[C@@H](CCCCNC(=O)COCCOCCNC(=O)COCCOCCNC(=O)COCCOCCNC(=O)COCCOCCNC(=O)CN(CCCNC(=O)COCCOCCNC(=O)COCCOCCNC(=O)CC[C@H](NC(=O)[C@H]1CC[C@H](CNC(=O)CCCCCCCCCCCCCCCCCCC(=O)O)CC1)C(=O)O)CCCNC(=O)COCCOCCNC(=O)COCCOCCNC(=O)CC[C@H](NC(=O)[C@H]1CC[C@H](CNC(=O)CCCCCCCCCCCCCCCCCCC(=O)O)CC1)C(=O)O)C(=O)O)C(C)C [Example 12] | 0.02 nM | 5.71 days | 0.51 nM | 25 nM
